Test results from US20140051650A1, “VAGINAL COMPOSITIONS BASED ON ALKYL POLYGLUCOSIDES” (EFFIK S.A., priority 2011, published 2014).
In brackets after ≈: the same amount, converted by molar mass. Like-named read-outs stand apart in the source and are kept apart here.

Experiments:
Streptococcus agalactiae [1] = test: Minimum Bactericidal Concentration (MBC) in liquid medium against Streptococcus agalactiae; type: cell-based
Description: Three Streptococcus agalactiae strains isolated from vaginal-rectal buffers during the prenatal check-ups were used for the assay. The strains were named “strain 2”, “strain 10” and “strain 11”. Isolation was carried out on a blood agar medium and identification was obtained through biochemical tests of the API 20 Strep (Bio-Mérieux) system and through the identification of the Lancefield group.
The experiments were also carried out on a Streptococcus agalactiae ATCC 12386 strain.
“Brain Heart Infusion broth” (BHIb, Becton Dickinson) medium was used for the Streptococcus agalactiae culture, “Mueller-Hinton broth” (M-Hb) medium after adding 2% “laked” horse blood and the “Mueller-Hinton agar” (M-Ha) medium with addition of defibrinated horse blood at 5% (Oxoid) were used for the antimicrobial activity assays.
The Streptococcus agalactiae strains were cultured in BHIb broth for 24 hours at 37° C. Immediately before the assay, the bacterial suspensions were diluted up to obtaining turbidity equivalent to 0.5 McFarland standard. 50 μl of a further 1:100 dilution in broth+blood at 2% were distributed in the wells of the microtitre plates. The presumed titre of the inoculum carried out through this procedure is of about 5×10^4 ufc (units forming colony)/well.
The bacterial cultures were also diluted serially according to a value 10 (up to a dilution value equivalent to 10^−7) and an aliquot of 0.1 ml of each dilution was double streaked on M-Ha +blood 5% for determining the actual titre to be used, subsequently, to determine the MBC (Minimum Bactericidal Concentration).
The assay was carried out in 96-well microtitre plates. 50 μl of M-Hb at normal concentration were deposited in the first well of each of the 5 rows. Starting from the first well of each row, […] volumes were transferred from each well to the subsequent one 10 times, thus obtaining a series of dilutions after doubling. The 12th well of each row was kept substance-free as a positive control of the bacterial growth.
Subsequently, 50 μl of bacterial inoculum of M-Hb+double concentration blood (4%) were deposited in all wells of the plate, except for the 11th of each row. Only M-Hb+double concentration blood but bacteria-free, were deposited in the 11th well, with the aim of providing negative control for each row. The described scheme was used for the assay of each of the three Streptococcus agalactiae strains.
(§1) Immediately after determining the value of the MIC for each substance, a volume equivalent to 50 μl was taken from each well and streaked on the surface of plates containing the solid medium. The plates were subsequently incubated at the conditions indicated for each microbial strain. After incubation at 37° C. for 24 hours, the number of colonies grown on the medium surface was counted thus determining the number of bacteria that survived after 24 hours of contact with the substance at the concentration present in the well. The MBC value defined as the lowest concentration of each substance capable of reducing the bacterial load by 99.9% in the previously defined assay conditions was determined through comparison between the number of bacteria that survived in each well and that of the bacterial inoculum deposited initially.

Streptococcus agalactiae [2] = test: Minimum Inhibitory Concentration (MIC) on agarised medium against Streptococcus agalactiae; type: cell-based
Description: The assay was carried out on an M-Ha medium+blood at 5%. The medium was prepared at a concentration 33% higher with respect to the final one used in the test corresponding to the one indicated by the supplier. After sterilisation in autoclave, the medium was balanced at the temperature of 48° C. and added with horse blood at the concentration of 6.6% (33% higher than the final concentration of the assay). 15 ml aliquots of M-Ha medium+blood were transferred into 50 ml falcon test tubes maintained at 48° C., added with 5 ml of the dilutions of the substances to be assayed, mixed, poured into Petri dishes and left to solidify. Twenty-five bacterial inoculums, each with approximate volume of about 5 μl and containing about 10^5 ufc, were deposited on the surface of the M-Ha medium+blood of each plate. After incubation at 37° C. for 18 hours the minimum inhibitory concentration (MIC) defined as the minimum concentration of substance capable of inhibiting a bacterial growth noticeable to the naked eye at the area of deposition of the inoculums was read.
In the test with Streptococcus agalactiae the minimum inhibitory concentrations in the assay in liquid medium, regarding which only the bactericide minimum concentration values are indicated, could not be determined with sufficient reliability due to the turbidity of the solutions containing the substances. “Determination of the Minimum Inhibitory Concentration on Agarised Medium” was carried out to obtain the MIC values.

[3] = system: Neisseria gonorrhoeae ATCC 43069; test: MIC against Neisseria gonorrhoeae; type: cell-based; conditions: substance alone
Description: (§2) The Gardnerella vaginalis ATCC 14018 strain, the Neisseria gonorrhoeae ATCC 43069 strain and the Candida albicans ATCC 10231 strain were also used for the experiment.
(§3) The other assayed microbial strains were cultured in the liquid media and in the incubation conditions specified in table A, following the operating procedure described above.
(§4) The assay was carried out in 96-well microtitre plates. 50 μl of substance solution at the “mother” concentration alongside 50 μl of liquid medium at double concentration were deposited in the first well of each of the 8 rows while 50 μl of liquid medium at normal concentration were deposited in the remaining 11 wells. Starting from the first well of each row, 50 μl volumes were transferred from each well to the subsequent one 10 times, thus obtaining a series of 11 dilutions after doubling. The 12th well of each row was kept substance-free as a function of positive control of the bacterial growth.
(§5) Subsequently, 50 μl of diluted bacterial inoculum as specified previously were deposited in all wells of the plate, except for the 11th of each row. Only the liquid medium at single concentration but bacteria-free, was deposited in the 11th well, with the aim of providing negative control for each row. The described scheme was used for the assay with each of the assayed microbial strains. […]

[4] = system: Neisseria gonorrhoeae ATCC 43069; test: MBC against Neisseria gonorrhoeae; type: cell-based; conditions: substance alone
Description: as §1, with “The Gardnerella vaginalis ATCC 14018 strain, the Neisseria gonorrhoeae ATCC 43069 strain and the Candida albicans ATCC 10231 strain were also used for the experiment. [table] The other assayed microbial strains were cultured in the liquid media and in the incubation conditions specified in table A, following the operating procedure described above. Immediately” for “Immediately”

[5] = system: Candida albicans ATCC 10231; test: MBC against Candida albicans; type: cell-based; conditions: substance alone
Description: as §1, with “The Gardnerella vaginalis ATCC 14018 strain, the Neisseria gonorrhoeae ATCC 43069 strain and the Candida albicans ATCC 10231 strain were also used for the experiment. [table] The other assayed microbial strains were cultured in the liquid media and in the incubation conditions specified in table A, following the operating procedure described above. Immediately” for “Immediately”

[6] = system: Candida albicans ATCC 10231; test: MIC against Candida albicans; type: cell-based; conditions: substance alone
Description: as §2, §3, §4
Subsequently, 50 μl of diluted bacterial inoculum as specified previously were deposited in all wells of the plate, except for the 11th of each row. Only the liquid medium at single concentration but bacteria-free, was deposited in the 11th well, with the aim of providing negative control for each row. The described scheme was used for the assay with each of the assayed microbial strains.
After incubation at the conditions indicated regarding each micro-organism, the microtitre plates were examined to verify, in each well, the presence or absence of bacterial growth. The minimum inhibitory concentration is defined as the lowest concentration of the substance still capable of inhibiting bacterial growth i.e. preventing the liquid from becoming turbid within the well.

[7] = system: Gardnerella vaginalis ATCC 14018; test: MBC against Gardnerella vaginalis; type: cell-based; conditions: substance alone
Description: as §1, with “The Gardnerella vaginalis ATCC 14018 strain, the Neisseria gonorrhoeae ATCC 43069 strain and the Candida albicans ATCC 10231 strain were also used for the experiment. [table] The other assayed microbial strains were cultured in the liquid media and in the incubation conditions specified in table A, following the operating procedure described above. Immediately” for “Immediately”

[8] = system: Gardnerella vaginalis ATCC 14018; test: MIC against Gardnerella vaginalis; type: cell-based; conditions: substance alone
Description: as §2, §3, §4, §5

[9] = "Mother" concentration: highest concentration at which complete solubilisation could be obtained; type: physicochemical; conditions: propylene glycol 30% in water, aqueous with cosolvent or surfactant or cyclodextrin; solvent prop glycol 30% in water; read-out: "mother" conc. (highest concentration at which complete solubilisation could be obtained)
Description: The substances to be subjected to the analysis were prepared for the assay through dilution and sterilisation as described hereinafter.
The concentration of the substances referred to as “mother” represents the highest concentration at which complete solubilisation could be obtained and it is […] than the highest concentration assayed in the test.

[10] = ATCC 12386 in M-Hb blood 2%, substance alone
[11] = Strain 2 in M-Hb blood 2%, substance alone
[12] = Strain 10 in M-Hb blood 2%, substance alone
[13] = Strain 11 in M-Hb blood 2%, substance alone

Row | MIC (minimum inhibiting concentration) (Streptococcus agalactiae [2]; strain 2, substance alone) [%] | MIC (minimum inhibiting concentration) (Streptococcus agalactiae [2]; strain 5, substance alone) [%] | MIC (minimum inhibiting concentration) (Streptococcus agalactiae [2]; strain 6, substance alone) [%] | MIC (minimum inhibiting concentration) (Streptococcus agalactiae [2]; strain 7, substance alone) [%] | MIC (minimum inhibiting concentration) (Streptococcus agalactiae [2]; strain 8, substance alone) [%] | MIC (minimum inhibiting concentration) (Streptococcus agalactiae [2]; strain 9, substance alone) [%] | MIC (minimum inhibiting concentration) (Streptococcus agalactiae [2]; strain 10, substance alone) [%] | MIC (minimum inhibiting concentration) (Streptococcus agalactiae [2]; strain 11, substance alone) [%] | MIC (minimum inhibiting concentration) (Streptococcus agalactiae [2]; strain 12, substance alone) [%] | MIC (minimum inhibiting concentration) (Streptococcus agalactiae [2]; strain 13, substance alone) [%] | MIC (minimum inhibiting concentration) (Streptococcus agalactiae [2]; strain 14, substance alone) [%] | MIC (minimum inhibiting concentration) (Streptococcus agalactiae [2]; strain 15, substance alone) [%] | MIC (minimum inhibiting concentration) (Streptococcus agalactiae [2]; strain 16, substance alone) [%] | MIC (minimum inhibiting concentration) (Streptococcus agalactiae [2]; strain 17, substance alone) [%] | MIC (minimum inhibiting concentration) (Streptococcus agalactiae [2]; strain 18, substance alone) [%] | MIC (minimum inhibiting concentration) (Streptococcus agalactiae [2]; strain 19, substance alone) [%] | SMILES | MBC (Streptococcus agalactiae [1]; [10]) | MBC (Streptococcus agalactiae [1]; [11]) | MBC (Streptococcus agalactiae [1]; [12]) | MBC (Streptococcus agalactiae [1]; [13]) | other results
1 | 0.11 | 0.11 | 0.11 | 0.11 | 0.22 | 0.11 | 0.22 | 0.11 | 0.11 | 0.11 | 0.11 | 0.11 | 0.11 | 0.11 | 0.22 | 0.11 | CCCCCCCCCCCC(=O)OCC(O)CO (stereo not drawn) [G, monolaurate] | 0.107 | 0.107 | 0.428 | 0.107 | MIC (minimum inhibiting concentration) (Streptococcus agalactiae [2]; strain 20, substance alone): 0.11%; MIC (minimum inhibiting concentration) (Streptococcus agalactiae [2]; strain 21, substance alone): 0.11%; MIC (minimum inhibiting concentration) (Streptococcus agalactiae [2]; strain 22, substance alone): 0.11%; MIC (minimum inhibiting concentration) (Streptococcus agalactiae [2]; strain 23, substance alone): 0.11%; MIC (minimum inhibiting concentration) (Streptococcus agalactiae [2]; strain 24, substance alone): 0.11%; MIC (minimum inhibiting concentration) (Streptococcus agalactiae [2]; strain 25, substance alone): 0.11%; MIC (minimum inhibiting concentration) (Streptococcus agalactiae [2]; strain 12386, substance alone): 0.11%; MIC (minimum inhibiting concentration) (Streptococcus agalactiae [2]; strain 12403, substance alone): 0.11%; MIC (minimum inhibiting concentration) (Streptococcus agalactiae [2]; strain 27956, substance alone): 0.11%
2 | – | – | – | – | – | – | – | – | – | – | – | – | – | – | – | – | CC1(C)S[C@@H]2[C@H](NC(=O)[C@H](N)c3ccccc3)C(=O)N2[C@H]1C(=O)O [Ampicillin, reference compound] | – | – | – | – | MIC [3]: ≦0.000012%; MBC (Streptococcus agalactiae [1]; Streptococcus agalactiae, ATCC12386, ATCC 12386 in M-Hb blood 2%, reference antibiotic, read-out: MBC): 0.5 µg/mL (≈ 1.43 µM); MBC (Streptococcus agalactiae [1]; Streptococcus agalactiae, Strain 2 in M-Hb blood 2%, reference antibiotic, read-out: MBC): < 0.06 µg/mL; MBC (Streptococcus agalactiae [1]; Streptococcus agalactiae, Strain 10 in M-Hb blood 2%, reference antibiotic, read-out: MBC): 1 µg/mL (≈ 2.86 µM); MBC (Streptococcus agalactiae [1]; Streptococcus agalactiae, Strain 11 in M-Hb blood 2%, reference antibiotic, read-out: MBC): < 0.06 µg/mL; concentrations required to perform the bactericidal action, times higher in strain 10 than against strain 2 and 11 (Streptococcus agalactiae [1]; strain 10 versus strains 2 and 11): at least 15 times; MBC [4]: ≦0.000012%
3 | – | – | – | – | – | – | – | – | – | – | – | – | – | – | – | – | Clc1ccc(COC(Cn2ccnc2)c2ccc(Cl)cc2Cl)c(Cl)c1 (stereo not drawn) [miconazole] | – | – | – | – | MBC [5]: 0.0008%; MIC [6]: 0.000012%
4 | – | – | – | – | – | – | – | – | – | – | – | – | – | – | – | – | Cc1ncc([N+](=O)[O-])n1CCO [metronidazole, reference compound] | – | – | – | – | MBC [7]: 0.0008%; MIC [8]: 0.0004%
5 | – | – | – | – | – | – | – | – | – | – | – | – | – | – | – | – | Clc1ccc(COC(Cn2ccnc2)c2ccc(Cl)cc2Cl)cc1 (stereo not drawn) [econazole] | – | – | – | – | MBC [5]: 0.0008%; MIC [6]: 0.000025%
6 | 0.25 | 0.25 | 0.25 | 0.25 | 0.25 | 0.25 | 0.25 | 0.25 | 0.25 | 0.25 | 0.25 | 0.25 | 0.25 | 0.25 | 0.25 | 0.25 | CCCCCCCCCCCC(=O)O [F, lauric acid] | 0.25 | ≧0.25 | ≧0.25 | 0.25 | solubility [9]: 10.1 mg/mL (≈ 50300 µM); MIC (minimum inhibiting concentration) (Streptococcus agalactiae [2]; strain 20, substance alone): 0.25%; MIC (minimum inhibiting concentration) (Streptococcus agalactiae [2]; strain 21, substance alone): 0.25%; MIC (minimum inhibiting concentration) (Streptococcus agalactiae [2]; strain 22, substance alone): 0.25%; MIC (minimum inhibiting concentration) (Streptococcus agalactiae [2]; strain 23, substance alone): 0.25%; MIC (minimum inhibiting concentration) (Streptococcus agalactiae [2]; strain 24, substance alone): 0.25%; MIC (minimum inhibiting concentration) (Streptococcus agalactiae [2]; strain 25, substance alone): 0.25%; MIC (minimum inhibiting concentration) (Streptococcus agalactiae [2]; strain 12386, substance alone): 0.25%; MIC (minimum inhibiting concentration) (Streptococcus agalactiae [2]; strain 12403, substance alone): 0.25%; MIC (minimum inhibiting concentration) (Streptococcus agalactiae [2]; strain 27956, substance alone): 0.25%
